Measurements as given in PubChem BioAssay (NCI).
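Assay format: 96-well plates, 48-hour exposure. Definition used: TGI = concentration required for complete inhibition of growth.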

What was measured:
Experiment in all cases: NCI tumour cell line growth inhibition, 48 h
OVCAR-5 ovarian = system: OVCAR-5 ovarian
RXF 393 renal = system: RXF 393 renal
UO-31 renal = system: UO-31 renal
K-562 leukemia = system: K-562 leukemia
DLD-1 colon = system: DLD-1 colon
SNB-75 CNS = system: SNB-75 CNS
HOP-62 NSCLC = system: HOP-62 NSCLC
HL-60(TB) leukemia = system: HL-60(TB) leukemia
A549 NSCLC = system: A549 NSCLC
SK-MEL-28 melanoma = system: SK-MEL-28 melanoma
HOP-18 NSCLC = system: HOP-18 NSCLC
CCRF-CEM leukemia = system: CCRF-CEM leukemia
SK-OV-3 ovarian = system: SK-OV-3 ovarian
NCI-H23 lung = system: NCI-H23 lung
M19-MEL melanoma = system: M19-MEL melanoma
SN12C renal = system: SN12C renal
HCC-2998 colon = system: HCC-2998 colon
NCI-H460 lung = system: NCI-H460 lung
HT29 colon = system: HT29 colon
SF-268 CNS = system: SF-268 CNS
SF-295 CNS = system: SF-295 CNS
UACC-62 melanoma = system: UACC-62 melanoma
HCT-116 colon = system: HCT-116 colon
UACC-257 melanoma = system: UACC-257 melanoma
MOLT-4 leukemia = system: MOLT-4 leukemia
TK-10 renal = system: TK-10 renal
RPMI-8226 leukemia = system: RPMI-8226 leukemia
COLO 205 colon = system: COLO 205 colon
HCT-15 colon = system: HCT-15 colon
786-0 renal = system: 786-0 renal
HOP-92 NSCLC = system: HOP-92 NSCLC
SR leukemia = system: SR leukemia
MALME-3M melanoma = system: MALME-3M melanoma
EKVX NSCLC = system: EKVX NSCLC
NCI-H226 lung = system: NCI-H226 lung
M14 melanoma = system: M14 melanoma
CAKI-1 renal = system: CAKI-1 renal
U251 CNS = system: U251 CNS
OVCAR-4 ovarian = system: OVCAR-4 ovarian
SK-MEL-2 melanoma = system: SK-MEL-2 melanoma
SNB-19 CNS = system: SNB-19 CNS
LOX IMVI melanoma = system: LOX IMVI melanoma
SF-539 CNS = system: SF-539 CNS
ACHN renal = system: ACHN renal
KM20L2 colon = system: KM20L2 colon
OVCAR-3 ovarian = system: OVCAR-3 ovarian
OVCAR-8 ovarian = system: OVCAR-8 ovarian
DMS 273 small cell lung = system: DMS 273 small cell lung
LXFL 529 NSCLC = system: LXFL 529 NSCLC
DMS 114 small cell lung = system: DMS 114 small cell lung
SK-MEL-5 melanoma = system: SK-MEL-5 melanoma
RXF-631 renal = system: RXF-631 renal
KM12 colon = system: KM12 colon
SW-620 colon = system: SW-620 colon
IGROV1 ovarian = system: IGROV1 ovarian
XF 498 CNS = system: XF 498 CNS

Measured: TGI

C[P+](C)(C)c1ccccc1
> 100 µM: all assays above
